The text below walks through data of patent publication US20060247250A1 (TargeGen, Inc., priority 2005, published 2006).

By IC50 is commonly meant the concentration needed to halve the response being measured.

What all share (assay type): biochemical
One test has as its target T1, human Yes (Homo sapiens, UniProt P07947).
T1 construct: purchased Panvera/Invitrogen
The experiment in a line: Yes kinase inhibition, luciferase-based residual ATP (KinaseGlo). As to conditions: recombinant human Yes, ATP 3 μM, PTK2 substrate, 90 minutes at room temperature. The procedure: (§1) The ability of compounds of the present invention to inhibit the activity of three groups of kinases was tested. Kinases tested included the src family (primarily src and yes), the angiogenic growth factors receptors (FGFR1, PDGFRb and VEGFR2) and the ephrin, EphB4. All kinase reactions were conducted in 96-well plates with a final reaction volume of 50 ul.
(§2) Recombinant human c-Src or Yes (28 ng/well, Panvera/Invitrogen, Madison Wis.), ATP (3 μM), a tyrosine kinase substrate (PTK2, 250 μM, Promega Corp., Madison Wis.), and test agents (at concentrations ranging from about 1 nM/l to about 100 μM/1), in the presence of Src kinase reaction buffer (Upstate USA, Lake Placid N.Y.). After reacting for about 90 minutes at room temperature, residual ATP was determined using a luciferase-based assay (KinaseGlo, Promega Corp.) as a measure of kinase activity. Data from four wells were then averaged and used to determine IC50 values for the test compounds (Prism software package, GraphPad Software, San Diego Calif.).

The target of another test is T2, VEGFR2 (Homo sapiens, UniProt P35968).
T2 construct: purchased Cell Signaling/ProQinase
The test is described as follows: VEGFR2 kinase assay, residual ATP luminescence. The following applies: VEGFR2, poly(glu4tyr), 1.5 uM ATP, 60 minutes at 37 C; read-out: Vegfr IC50. The protocol:
as §1
(§3) FGFR1 and VEGFR2 kinase assays were similarly performed. FGFR1 (76 ng/well, Panvera/Invitrogen) was combined with 12.5 mg/ml poly(glu4tyr) (Sigma) and 2.5 uM ATP. VEGFR2 (14.1 U/well, Cell Signaling/ProQinase) was used with 0.3 mg/ml poly(glu4tyr) and 1.5 uM ATP. Both were incubated for 60 minutes at 37 C, and the residual ATP was measured via luminescence, per the procedure described above.

A further test concerns the target T3, FGFR1 (Homo sapiens, UniProt P11362).
T3 construct: purchased Panvera/Invitrogen
The test is described as follows: FGFR1 kinase assay, residual ATP luminescence. As to conditions: poly(glu4tyr), 2.5 uM ATP, 60 minutes at 37 C. The procedure: as §1, §3

A further test concerns the target T4, PDGFRb (Homo sapiens, UniProt P09619).
T4 construct: purchased Panvera/Invitrogen
The experiment in a line: PDGFRb kinase assay, residual ATP luminescence. The following applies: PTK2 peptide, 500 nM ATP, 60 minutes at 37 C; read-out: Pdgfrβ IC50. The procedure:
as §1
PDGFRb (0.16 ug/well, Panvera/Invitrogen) 500 nM ATP and the PTK2 peptide (700 uM) were combined with compound and reaction buffer as noted above for src. The reaction was incubated for 60 minutes at 37 C, and the residual ATP concentration was determined using the luciferase-based technique also noted above.

In the next test the target is T5, human c-Src (Homo sapiens, UniProt P12931).
T5 construct: purchased Panvera/Invitrogen
The test is described as follows: Src kinase inhibition, luciferase-based residual ATP (KinaseGlo). As to conditions: recombinant human c-Src, ATP 3 μM, PTK2 substrate, 90 minutes at room temperature. The procedure:
as §1, §2

T5 sequence (P12931 whole entry): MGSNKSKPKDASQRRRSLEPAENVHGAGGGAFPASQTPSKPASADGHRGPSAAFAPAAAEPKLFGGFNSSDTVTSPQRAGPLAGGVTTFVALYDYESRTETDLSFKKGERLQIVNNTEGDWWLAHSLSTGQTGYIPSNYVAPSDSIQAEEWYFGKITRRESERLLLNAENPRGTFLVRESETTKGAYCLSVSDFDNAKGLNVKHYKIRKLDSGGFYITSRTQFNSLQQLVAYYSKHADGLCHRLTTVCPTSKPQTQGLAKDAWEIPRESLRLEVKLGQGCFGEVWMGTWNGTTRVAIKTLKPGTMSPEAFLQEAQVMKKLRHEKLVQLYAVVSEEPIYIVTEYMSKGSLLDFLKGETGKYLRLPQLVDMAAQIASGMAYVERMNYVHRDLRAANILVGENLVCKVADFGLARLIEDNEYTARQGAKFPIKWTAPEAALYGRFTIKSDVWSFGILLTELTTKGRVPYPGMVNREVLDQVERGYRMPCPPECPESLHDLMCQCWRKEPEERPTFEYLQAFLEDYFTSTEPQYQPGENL
T2 sequence (P35968 20-1356, species assumed): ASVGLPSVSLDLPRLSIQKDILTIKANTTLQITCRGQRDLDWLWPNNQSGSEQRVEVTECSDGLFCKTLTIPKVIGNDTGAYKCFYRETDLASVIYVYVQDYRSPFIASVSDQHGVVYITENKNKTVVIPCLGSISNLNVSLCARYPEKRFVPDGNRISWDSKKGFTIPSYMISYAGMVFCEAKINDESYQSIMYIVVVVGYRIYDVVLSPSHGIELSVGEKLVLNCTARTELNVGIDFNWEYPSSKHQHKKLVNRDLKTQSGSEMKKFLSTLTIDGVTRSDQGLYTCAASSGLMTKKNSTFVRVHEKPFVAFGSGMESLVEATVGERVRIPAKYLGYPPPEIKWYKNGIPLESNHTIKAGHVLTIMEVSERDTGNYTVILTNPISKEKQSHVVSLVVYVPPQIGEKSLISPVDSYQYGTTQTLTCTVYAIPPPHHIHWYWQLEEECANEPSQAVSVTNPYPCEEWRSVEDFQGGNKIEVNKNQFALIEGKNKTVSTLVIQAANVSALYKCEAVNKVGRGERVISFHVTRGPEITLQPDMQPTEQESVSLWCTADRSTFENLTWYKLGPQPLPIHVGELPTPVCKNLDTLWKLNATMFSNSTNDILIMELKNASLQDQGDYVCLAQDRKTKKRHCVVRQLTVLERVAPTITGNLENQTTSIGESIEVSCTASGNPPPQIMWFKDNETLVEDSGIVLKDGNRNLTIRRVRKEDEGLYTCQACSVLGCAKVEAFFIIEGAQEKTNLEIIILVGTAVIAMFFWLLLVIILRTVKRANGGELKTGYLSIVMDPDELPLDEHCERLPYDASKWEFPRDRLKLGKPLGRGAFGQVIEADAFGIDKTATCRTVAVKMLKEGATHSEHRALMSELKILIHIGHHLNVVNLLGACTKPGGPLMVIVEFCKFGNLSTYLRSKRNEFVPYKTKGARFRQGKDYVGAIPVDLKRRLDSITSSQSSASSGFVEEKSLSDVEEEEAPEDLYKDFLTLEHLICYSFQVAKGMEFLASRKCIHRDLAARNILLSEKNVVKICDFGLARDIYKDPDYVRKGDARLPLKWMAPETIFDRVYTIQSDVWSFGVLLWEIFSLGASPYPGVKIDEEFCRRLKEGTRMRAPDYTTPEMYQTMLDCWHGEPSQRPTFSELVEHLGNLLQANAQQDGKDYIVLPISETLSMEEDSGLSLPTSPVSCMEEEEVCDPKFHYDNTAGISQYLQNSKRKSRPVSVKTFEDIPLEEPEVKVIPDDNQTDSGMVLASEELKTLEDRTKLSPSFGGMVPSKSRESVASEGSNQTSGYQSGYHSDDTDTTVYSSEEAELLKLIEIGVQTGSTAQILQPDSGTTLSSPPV
T3 sequence (P11362 22-822, species assumed): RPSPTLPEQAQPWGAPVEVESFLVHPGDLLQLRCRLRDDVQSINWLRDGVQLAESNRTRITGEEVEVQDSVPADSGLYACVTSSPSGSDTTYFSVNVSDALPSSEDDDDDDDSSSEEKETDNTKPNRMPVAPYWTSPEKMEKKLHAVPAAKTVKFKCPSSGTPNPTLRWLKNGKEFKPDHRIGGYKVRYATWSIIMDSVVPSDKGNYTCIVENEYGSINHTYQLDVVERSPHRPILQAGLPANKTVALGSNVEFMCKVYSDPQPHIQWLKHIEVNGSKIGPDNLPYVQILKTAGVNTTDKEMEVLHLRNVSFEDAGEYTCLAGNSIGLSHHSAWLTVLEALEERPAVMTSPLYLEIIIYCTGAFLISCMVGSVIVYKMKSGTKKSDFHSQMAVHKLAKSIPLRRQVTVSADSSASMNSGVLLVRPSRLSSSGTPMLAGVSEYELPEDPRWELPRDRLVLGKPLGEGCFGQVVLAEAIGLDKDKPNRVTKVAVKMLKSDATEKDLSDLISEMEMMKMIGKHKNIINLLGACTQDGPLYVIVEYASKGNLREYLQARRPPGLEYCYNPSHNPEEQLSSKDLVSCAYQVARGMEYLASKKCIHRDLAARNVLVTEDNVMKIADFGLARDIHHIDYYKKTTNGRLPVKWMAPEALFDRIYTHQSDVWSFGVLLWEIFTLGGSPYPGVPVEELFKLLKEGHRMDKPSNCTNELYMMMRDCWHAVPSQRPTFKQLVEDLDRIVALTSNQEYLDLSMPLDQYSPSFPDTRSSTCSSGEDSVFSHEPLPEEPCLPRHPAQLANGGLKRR
T1 sequence (P07947 whole entry): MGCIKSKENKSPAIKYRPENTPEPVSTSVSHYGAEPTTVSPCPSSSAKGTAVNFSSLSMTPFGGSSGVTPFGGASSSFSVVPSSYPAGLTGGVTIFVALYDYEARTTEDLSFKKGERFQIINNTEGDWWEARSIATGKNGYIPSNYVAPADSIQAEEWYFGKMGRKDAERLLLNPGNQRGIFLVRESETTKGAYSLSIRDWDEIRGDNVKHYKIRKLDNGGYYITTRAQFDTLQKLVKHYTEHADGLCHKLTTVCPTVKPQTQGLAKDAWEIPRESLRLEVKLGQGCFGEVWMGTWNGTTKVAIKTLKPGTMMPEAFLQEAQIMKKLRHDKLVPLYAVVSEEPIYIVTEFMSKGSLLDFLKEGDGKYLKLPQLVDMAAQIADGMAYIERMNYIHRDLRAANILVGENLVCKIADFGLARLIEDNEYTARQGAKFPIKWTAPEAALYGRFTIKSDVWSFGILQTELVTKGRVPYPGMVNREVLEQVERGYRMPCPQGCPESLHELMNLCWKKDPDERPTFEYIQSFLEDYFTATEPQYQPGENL
T4 sequence (P09619 33-1106, species assumed): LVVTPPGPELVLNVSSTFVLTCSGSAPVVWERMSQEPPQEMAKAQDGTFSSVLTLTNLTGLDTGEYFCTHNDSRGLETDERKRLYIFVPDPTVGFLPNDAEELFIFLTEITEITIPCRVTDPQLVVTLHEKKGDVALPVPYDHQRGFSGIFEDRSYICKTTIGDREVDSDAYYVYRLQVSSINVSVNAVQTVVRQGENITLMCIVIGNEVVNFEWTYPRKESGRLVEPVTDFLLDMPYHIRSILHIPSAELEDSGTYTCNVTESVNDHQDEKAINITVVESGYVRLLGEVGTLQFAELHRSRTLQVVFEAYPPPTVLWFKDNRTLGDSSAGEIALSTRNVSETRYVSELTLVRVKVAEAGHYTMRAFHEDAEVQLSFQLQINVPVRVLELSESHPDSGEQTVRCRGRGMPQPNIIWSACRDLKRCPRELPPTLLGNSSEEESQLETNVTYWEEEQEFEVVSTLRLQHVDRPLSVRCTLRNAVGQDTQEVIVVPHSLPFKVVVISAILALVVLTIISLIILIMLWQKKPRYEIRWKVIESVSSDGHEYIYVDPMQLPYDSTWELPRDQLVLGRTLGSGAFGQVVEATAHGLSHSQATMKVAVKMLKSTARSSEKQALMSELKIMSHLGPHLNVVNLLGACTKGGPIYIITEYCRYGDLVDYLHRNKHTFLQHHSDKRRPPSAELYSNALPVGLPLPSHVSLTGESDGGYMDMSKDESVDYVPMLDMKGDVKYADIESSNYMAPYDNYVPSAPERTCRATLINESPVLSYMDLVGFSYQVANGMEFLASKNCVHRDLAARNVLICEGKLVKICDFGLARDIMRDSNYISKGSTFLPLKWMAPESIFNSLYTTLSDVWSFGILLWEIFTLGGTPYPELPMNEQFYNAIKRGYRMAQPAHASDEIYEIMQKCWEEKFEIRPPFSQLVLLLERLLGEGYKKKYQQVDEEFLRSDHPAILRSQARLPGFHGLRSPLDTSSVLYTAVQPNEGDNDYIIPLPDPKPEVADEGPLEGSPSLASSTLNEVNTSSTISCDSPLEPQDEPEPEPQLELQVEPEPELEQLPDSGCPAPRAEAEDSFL

Take `CN1CCN(C(=O)c2ccc(Nc3ncc(NC(=O)c4cc(O)ccc4Cl)cn3)cc2)CC1` [drawing 207]: the 50% inhibitory concentration (IC50) on human Yes came to 10 nM; on VEGFR2, 360 nM; on FGFR1 it was 9400 nM.

As to `O=C(Nc1cnc(Nc2ccc(S(=O)(=O)NCCN3CCCC3)cc2)nc1)c1cc(O)ccc1Cl` [drawing 203], the IC50 at human Yes is 0.8 nM; at VEGFR2 it was 322 nM; at FGFR1, 5200 nM.

For the compound `O=C(Nc1cnc(Nc2ccc(C(=O)N3CCNCC3)cc2)nc1)c1cc(O)ccc1Cl` [drawing 205], the IC50 on human Yes is 1.9 nM; on VEGFR2, 310 nM; on FGFR1, 5400 nM.

In the case of `O=C(Nc1cnc(Nc2ccc(CCCN3CCCC3)cc2)nc1)c1c(Cl)cccc1Cl`, the IC50 at PDGFRb is 206 nM; on human Yes it was 26 nM; at VEGFR2, over 10000 nM; on FGFR1, over 10000 nM.

`O=C(Nc1cnc(Nc2ccc(S(=O)(=O)CCCN3CCCC3)cc2)nc1)c1cc(O)ccc1Cl` [drawing 206]: the figures for the IC50 on human Yes, on VEGFR2 and against FGFR1 were 3.7 nM, 358 nM and 7500 nM, respectively.

Regarding `Cc1c(O)cccc1C(=O)Nc1cnc(Nc2ccc(S(=O)(=O)CCCN3CCCC3)cc2)nc1` [XXXIII, 3-Hydroxy-2-methyl-N-{2-[4-(3-pyrrolidin-1-yl-propane-1-sulfonyl)-phenylamino]-pyrimidin-5-yl}-benzamide], at human c-Src, the IC50 was determined as 338 nM.

`O=C(Nc1cc(O)ccc1Cl)c1cnc(Nc2ccc(OCCN3CCCC3)cc2)nc1C(F)(F)F` [XXX, 2-[4-(2-Pyrrolidin-1-yl-ethoxy)-phenylamino]-4-trifluoromethyl-pyrimidine-5-carboxylic acid (2-chloro-5-hydroxy-phenyl)-amide]: the IC50 on human c-Src stood at 1340 nM.

Turning to `CC(C)N(CCO)C(=O)c1ccc(Nc2ncc(NC(=O)c3c(Cl)cccc3Cl)cn2)cc1` [XXI, 2,6-Dichloro-N-(2-{4-[(2-hydroxy-ethyl)-isopropyl-carbamoyl]-phenylamino}-pyrimidin-5-yl)-benzamide], at human c-Src, the IC50 is 286 nM.

Take `Cc1cccc(C)c1C(=O)Nc1cnc(Nc2ccc(OCCN3CCCC3)cc2)nc1` [XXXIX, N-(2-(4-(2-(Pyrrolidin-1-yl)ethoxy)phenylamino)pyrimidin-5-yl)-2,6-dimethyl-benzamide]: on human c-Src, the IC50 worked out at 104 nM.

Consider `O=C(Nc1cnc(Nc2ccc(S(=O)(=O)CCCN3CCCC3)cc2)nc1)c1ccc(O)cc1Cl` [XXXV, 2-Chloro-4-hydroxy-N-{2-[4-(3-pyrrolidin-1-yl-propane-1-sulfonyl)-phenylamino]-pyrimidin-5-yl}-benzamide], for which, on human c-Src, the IC50 was 462 nM.

As to `O=C(Nc1cnc(Nc2ccc(S(=O)(=O)NCCN3CCCC3)cc2)nc1)c1cc(O)ccc1Cl` [VII, 2-Chloro-5-hydroxy-N-{2-[4-(2-pyrrolidin-1-yl-ethylsulfamoyl)-phenylamino]-pyrimidin-5-yl}-benzamide], the IC50 at human c-Src was found to be 13 nM.

`O=C(NCCN1CCCC1)c1csc(Nc2ncc(NC(=O)c3cc(O)ccc3Cl)cn2)n1` [drawing 209]: the results for the concentration for half-maximal inhibition (IC50) at human Yes, on VEGFR2 and against FGFR1 were 19 nM, 614 nM and 2100 nM, respectively.

As to `CN1CCN(C(=O)c2ccc(Nc3ncc(NC(=O)c4c(Cl)cccc4Cl)cn3)cc2)CC1` [XIV, 2,6-Dichloro-N-{2-[4-(4-methyl-piperazine-1-carbonyl)-phenylamino]-pyrimidin-5-yl}-benzamide], on human c-Src, the IC50 was found to be 94 nM.

For `Clc1cccc(Cl)c1CNc1cnc(Nc2ccc(OCCN3CCCC3)cc2)nc1`, the IC50 at PDGFRb is 51 nM; on human Yes it was 40 nM; at VEGFR2, 907 nM; against FGFR1 it was 5280 nM.

As for `CC(C)N(CCO)C(=O)c1cccc(Nc2ncc(NC(=O)c3cc(O)ccc3Cl)cn2)c1` [XX, 2-Chloro-5-hydroxy-N-(2-{3-[(2-hydroxy-ethyl)-isopropyl-carbamoyl]-phenylamino}-pyrimidin-5-yl)-benzamide], the IC50 at human c-Src amounted to 19 nM.

Regarding `CC(C)N(CCO)C(=O)c1cccc(Nc2ncc(NC(=O)c3c(Cl)cccc3Cl)cn2)c1` [XIX, 2,6-Dichloro-N-(2-{3-[(2-hydroxy-ethyl)-isopropyl-carbamoyl]-phenylamino}-pyrimidin-5-yl)-benzamide], the half-inhibitory concentration (IC50) on human c-Src turned out to be 25 nM.

Take `O=C(Nc1cnc(Nc2ccc(S(=O)(=O)CCCN3CCCC3)cc2)nc1)c1cccc(O)c1` [XXXVI, 3-Hydroxy-N-{2-[4-(3-pyrrolidin-1-yl-propane-1-sulfonyl)-phenylamino]-pyrimidin-5-yl}-benzamide]: at human c-Src, the IC50 is 1490 nM.

As to `O=C(Nc1cnc(Nc2cccnc2)nc1)c1c(Cl)cccc1Cl` [X, 2,6-Dichloro-N-[2-(pyridin-3-ylamino)-pyrimidin-5-yl]-benzamide], on human c-Src, the IC50 came to 300 nM.

Consider `O=C(NCCN1CCCC1)c1ccc(Nc2ncc(NC(=O)c3c(Cl)cccc3Cl)cn2)cc1` [XXVIII, 2,6-Dichloro-N-{2-[4-(2-pyrrolidin-1-yl-ethylcarbamoyl)-phenylamino]-pyrimidin-5-yl}-benzamide], for which the IC50 on human c-Src turned out to be 60 nM.

On to `O=C(NCCN1CCCC1)c1ccc(Nc2ncc(NC(=O)c3cc(O)ccc3Br)cn2)cc1` [XXIII, 2-Bromo-5-hydroxy-N-{2-[4-(2-pyrrolidin-1-yl-ethylcarbamoyl)-phenylamino]-pyrimidin-5-yl}-benzamide], for which the IC50 at human c-Src amounted to 13 nM.

On to `O=C(Nc1cnc(Nc2ccc(N3CCN(CCO)CC3)nc2)nc1)c1c(Cl)cccc1Cl` [XLIX, 2,6-Dichloro-N-(2-{6-[4-(2-hydroxy-ethyl)-piperazin-1-yl]-pyridin-3-ylamino}-pyrimidin-5-yl)-benzamide], for which the half-maximal inhibitory concentration (IC50) on human c-Src worked out at 54 nM.
